# Results: EP0343954B1, “Aromatic steroid 5-alpha-reductase inhibitors” (SMITHKLINE BEECHAM CORPORATION, priority 1988, dated 1989)
# T1: human steroid 5-α-reductase (Homo sapiens, UniProt P31213)
# T1 construct: an aliquot of prostatic particulate solution to a final volume of 0.5 ml of 50 mM sodium citrate, pH 5.0; from tissue; host or cells: hyperplastic human prostate; washed 140,000 x g particulate fraction
# T1 sequence (P31213 1-254): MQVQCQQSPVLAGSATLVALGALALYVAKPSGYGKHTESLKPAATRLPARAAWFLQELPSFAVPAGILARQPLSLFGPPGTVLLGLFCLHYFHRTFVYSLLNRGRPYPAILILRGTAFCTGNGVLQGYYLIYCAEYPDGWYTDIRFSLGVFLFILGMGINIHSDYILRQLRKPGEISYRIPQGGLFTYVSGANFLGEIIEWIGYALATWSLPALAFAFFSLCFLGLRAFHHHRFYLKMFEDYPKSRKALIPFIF
# B1: human steroid 5-α-reductase (Homo sapiens) (protein)
# chain: T1 sequence (P31213 1-254)
# Target: T1, human steroid 5-α-reductase
# Experiment: Inhibition of human prostatic steroid 5-α-reductase: [14C]-testosterone conversion by prostatic particulate, Dixon plot
# Assay type: biochemical
# Conditions: not given
# Procedure: The potency of several compounds of the invention was tested for potency in inhibiting human steroid 5-α-reductase using tissue from hyperplastic human prostates. In determining potency in inhibiting the human enzyme, the following procedure was employed:
# Frozen human prostates were thawed and minced into small pieces ( 5mm³). The tissue was homogenized in 3 to 5 volumes of 20 mM potassium phosphate, pH 6.5, buffer containing 0.33 M sucrose, 1 mM dithiothreitol, and 50 µM NADPH with a Brinkmann Polytron (Sybron Corporation, Westbury, New York). The solution was subjected to sonication for 3 to 5 minutes with a Sonifier (Branson Sonic Power Co.) followed by hand homogenization in a glass-to-glass Dounce homogenizer (Kontes Glass Company, Vineland, New Jersey).
# Prostatic particles were obtained by differential centrifugation at 600 or 1000 x g for 20 minutes and 140,000 x g for 60 minutes at 4°C. The pellet obtained from the 140,000 x g centrifugation was washed with 5 to 10 tissue volumes of the buffer described above and recentrifuged at 140,000 x g. The resulting pellet was suspended in 20 mM potassium phosphate buffer, pH 6.5, containing 20% glycerol, 1 mM dithiothreitol, and 50 µM NADPH. The suspended particulate solution was stored at -80°C.
# To each tube was added buffer, 20 µl of 10 mM NADPH and an aliquot of prostatic particulate solution to a final volume of 0.5 ml of 50 mM sodium citrate, pH 5.0. […] The organic layer was removed to a second test tube and evaporated to dryness in vacuo. The residue was dissolved in 20 to 30 µl chloroform, spotted on an individual lane of a 20 x 20 cm prechannelled silica gel TLC plate (Si 250F-PA, Baker Chemical) and developed twice with acetone:chloroform (1:9). The radiochemical content in the bands of the substrate and the products was determined with a BIOSCAN Imaging Scanner (Bioscan, Inc., Washington, D.C.). The percent of recovered radiolabel converted to product was calculated, from which enzyme activity was determined.
# The experimentally obtained data was computer fitted to a linear function by plotting the reciprocal of the enzyme activity (1/velocity) against the variable inhibitor concentration (Dixon, M. (1953), Biochem. J., 55, 170).
row,Molecule,Ki
1,"CC(C)N(C(=O)[C@H]1CC[C@H]2c3ccc4cc(C(=O)O)ccc4c3CC[C@]12C)C(C)C [17β-(N-N-Diisopropylcarboxamide)-estr-1,3,5(10),-6,8-pentaene-3-carboxylic Acid]",40 nM
2,"CC(C)(C)NC(=O)[C@H]1CC[C@H]2[C@@H]3CCc4cc(C(=O)O)ccc4[C@H]3CC[C@]12C [17β-(N-tert-Butylcarboxamide)-estr-1,3,5(10)-triene-3-carboxylic Acid]",43 nM
3,"CC(C)(C)NC(=O)C1=CC[C@H]2[C@@H]3CCc4cc(C(=O)O)ccc4[C@H]3CC[C@]12C [17β-(N-tert-Butylcarboxamide)-estr-1,3,5(10),-16-tetraene-3-carboxylic Acid]",60 nM
4,"CC(C)N(C(=O)[C@H]1CC[C@H]2[C@@H]3CCc4cc(CC(=O)O)ccc4[C@H]3CC[C@]12C)C(C)C [17β-(N,N-diisopropylcarboxamide)-estr-1,3,5(10)-triene-3-acetic acid]",20 nM
5,"Cc1c(C(=O)O)ccc2c1CC[C@@H]1[C@@H]2CC[C@]2(C)[C@@H](C(=O)N(C(C)C)C(C)C)CC[C@@H]12 [17β-(N-N-Diisopropylcarboxamide)-4-methyl-estr-1,3,5(10)-triene-3-carboxylic Acid]",270 nM
6,"CC(C)N(C(=O)[C@H]1CC[C@H]2[C@@H]3CCc4cc(C(=O)O)ccc4[C@H]3CC[C@]12C)C(C)C [17β-(N,N-Diisopropylcarboxamide)-estr-1,3,5(10)-triene-3-carboxylic Acid]",19 nM
7,"CC(C)N(C(=O)C1=CC[C@H]2[C@@H]3CCc4cc(C(=O)O)ccc4[C@H]3CC[C@]12C)C(C)C [17β-(N,N-Diisopropylcarboxamide)-estr-1,3,5(10),16-tetraene-3-carboxylic Acid]",70 nM
8,"CC(C)N(C(=O)[C@H]1CC[C@H]2[C@@H]3C=Cc4cc(C(=O)O)ccc4[C@H]3CC[C@]12C)C(C)C [17β-(N,N-Diisopropylcarboxamide)-estr-1,3,5(10),6-tetraene-3-carboxylic Acid]",30 nM
9,"Cc1cc2c(cc1C(=O)O)CC[C@@H]1[C@@H]2CC[C@]2(C)[C@@H](C(=O)N(C(C)C)C(C)C)CC[C@@H]12 [17β-(N,N-Diisopropylcarboxamide)-2-methyl-estr-1,3,5(10)-triene-3-carboxylic Acid]",57 nM

# System: steroid 5-α-reductase
# Experiment: In vivo inhibition of steroid 5-α-reductase: DHT levels in rat ventral prostate (HPLC, radioimmunoassay)
# Design: species or system Male Charles River CD rats
# Conditions: rats, dose of 20mg/kg, four hours after compound administration, p<.15
# Procedure: One of the compounds of the invention, 17β-(N-tert-butylcarboxamide)-estr-1,3,5(10)-triene-3-carboxylic acid, also was tested for its in vivo potency in inhibiting steroid 5-α-reductase activity. Male Charles River CD rats, 48 days old, weighing approximately 200 gm were administered this compound dissolved in propylene glycol and diluted in normal saline. Following compound administration the animals were sacrificed, the ventral prostates were excised, and DHT levels were measured by the following procedure.
# Prostate tissue was excised, trimmed, weighed, minced and washed with phosphate buffer. The tissue then was homogenized in phosphate buffer and extracted by addition of ethyl acetate and mixing on an orbital mixer for forty-five minutes. The ethyl acetate was evaporated, the residue was reconstituted in ethanol, and was centrifuge filtered using […] filter paper. The components then were separated using reverse-phase HPLC collecting the DHT fraction. The fraction was reduced to dryness and reconstituted in standard DHT assay buffer available from Amersham. DHT levels then were measured using standard techniques such as radioimmunoassay.
# In the compound-treated rats, prostatic DHT levels were decreased forty percent relative to vehicle-treated controls (p<.15) four hours after compound administration at a dose of 20mg/kg.
row,Molecule,prostatic DHT levels decreased relative to vehicle-treated controls
1,"CC(C)(C)NC(=O)[C@H]1CC[C@H]2[C@@H]3CCc4cc(C(=O)O)ccc4[C@H]3CC[C@]12C [17β-(N-tert-Butylcarboxamide)-estr-1,3,5(10)-triene-3-carboxylic Acid]",forty

# Substrate: C[C@]12CC[C@H]3[C@@H](CCC4=CC(=O)CC[C@@]43C)[C@@H]1CC[C@@H]2O
# Experiment: purified protein, by the assay type
# Conditions: other: substrate of steroid 5-α-reductase, used in equation 1
row,Molecule,Km
1,B1,4.5 µM
